Results on 1 compound are retold here after US20140041337A1, “Food Packaging Method” (Kureha Corporation, priority 2007, published 2014).

In this experiment the test system is bacteria. The experiment is described as follows: Summary of bacterial counting, Tables 1 to 4. In kind it is cell-based. The settings on record: carbon dioxide gas 10 to 45 cm^3 per 100 g of the food (volume at 0° C. and 1 atm). The protocol: The bacteria counts were determined as follows. The sliced beef was diluted with a tenfold amount of sterile physiological saline to give a test liquid. One (1) ml of the test liquid was placed in sterile Petri dishes. For the viable bacteria count, a standard agar medium (manufactured by NISSUI PHARMACEUTICAL CO., LTD.) was added and the bacteria were cultured at 37° C. for 2 days. For the coliform bacteria count, a desoxycholate agar medium (manufactured by NISSUI PHARMACEUTICAL CO., LTD.) was added and the bacteria were cultured at 37° C. for 1 day. The colonies that grew were counted. The psychrophilic bacteria count was determined as follows. The sliced pork was diluted with a tenfold amount of sterile physiological saline to give a test liquid. One (1) ml of the test liquid was placed in sterile Petri dishes. A YGA agar medium (manufactured by NISSUI PHARMACEUTICAL CO., LTD.) was added and the bacteria were cultured at 10° C. for 5 days. The colonies that grew were counted.

The structures appear in SMILES notation.

Turning to `O=C=O` [carbon dioxide gas, carbon dioxide], the bacterial growth result is listed as “inhibits bacterial growth”.
